The source of these data is US10844038B2, “1,2-dithiolane compounds useful in neuroprotection, autoimmune and cancer diseases and conditions” (SABILA BIOSCIENCES LLC, priority 2016, dated 2020).

pIC50, pKd: −log10 of the molar value.

Test [1] addresses T1, BRAF (Homo sapiens (Human), UniProt P15056). Put plainly: KINOMEscan competition binding assay (Kd). The settings on record: read-out: Kd Values Against MAPK Pathway Kinases: BRAF. On the procedure:
(§1) KINOMEscan™ is based on a competition binding assay that quantitatively measures the ability of a test compound of the invention to compete with an immobilized, active-site directed ligand. The Kinase assay is performed by combining three components: DNA-tagged kinase; immobilized ligand; and a test compound. The ability of the test compound to compete with the immobilized ligand is measured via quantitative PCR of the DNA tag.
(§2) For most assays, kinase-tagged T7 phage strains were prepared in an E. coli host derived from the BL21 strain. E. coli were grown to log-phase and infected with T7 phage and incubated with shaking at 32° C. until lysis. The lysates were centrifuged and filtered to remove cell debris. The remaining kinases were produced in HEK-293 cells and subsequently tagged with DNA for qPCR detection. Streptavidin-coated magnetic beads were treated with biotinylated small molecule ligands for 30 minutes at room temperature to generate affinity resins for kinase assays. The liganded beads were blocked with excess biotin and washed with blocking buffer (SeaBlock (Pierce), 1% BSA, 0.05% Tween 20, 1 mM DTT) to remove unbound ligand and to reduce nonspecific binding. […] All reactions were performed in polystyrene 96-well plates in a final volume of 0.135 ml. […] The kinase concentration in the eluates was measured by qPCR.

The target of test [2] is MEK6 (Homo sapiens (Human), UniProt P52564). In words: KINOMEscan competition binding assay (Kd). The settings on record: read-out: Kd Values Against MEK Kinases Isoforms: MEK6. How it is done: as §1, §2
MEK6, sequence (P52564 whole entry, canonical isoform): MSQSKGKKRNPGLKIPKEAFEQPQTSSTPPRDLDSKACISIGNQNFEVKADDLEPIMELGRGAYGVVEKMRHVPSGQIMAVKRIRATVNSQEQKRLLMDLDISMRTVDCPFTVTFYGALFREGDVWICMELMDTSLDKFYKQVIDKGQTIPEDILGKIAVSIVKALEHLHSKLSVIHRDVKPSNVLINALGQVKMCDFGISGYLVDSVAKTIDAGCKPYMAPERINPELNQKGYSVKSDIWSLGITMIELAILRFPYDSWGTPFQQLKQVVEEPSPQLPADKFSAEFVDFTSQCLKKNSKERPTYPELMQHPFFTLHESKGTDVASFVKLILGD
Test [3] addresses Bruton Tyrosine Kinase (BTK) (Homo sapiens (Human), UniProt Q06187). In words: Rabbit reticulocyte lysate assay (KinaseSeeker competition binding). The settings on record: read-out: IC50 Activity Levels Against Bruton Tyrosine Kinase: BTK. On the procedure: 1. Rabbit Reticulocyte Lysate Assay Design:
KinaseSeeker is a homogeneous competition binding assay where the displacement of an active site dependent probe by an inhibitor is measured by a change in luminescence signal. Luminescence readout translates into a highly sensitive and robust assay with low background and minimal interference from test compounds.
10 mM stock solutions of test compounds were serially diluted in DMSO to make assay stocks. Prior to initiating IC50 determinations, the test compounds were evaluated for false positive against split-luciferase.
Each test compound was screened in duplicate against target kinase at 7 different concentrations. For kinase assays, Cfluc-kinase was translated along with Fos-Nfluc using a cell-free system (rabbit reticulocyte lysate) at 30° C. for 90 min. 24 uL aliquot of this lysate containing either 1 uL of DMSO (for no-inhibitor control) or compound solution in DMSO was incubated for 30 minutes at room temperature followed by 1 hour in presence of a kinase specific probe. 80 uL of luciferin assay reagent was added to each solution and luminescence was immediately measured on a luminometer.
The % Inhibition and % Activity Remaining was calculated using the following equation: % Inhibition=[(ALUControl−ALUSample)/ALUControl]×100 % Activity Remaining=100−% Inhibition
The % Activity was plotted against compound concentration and the IC50 was determined for each compound using a 7-point curve (Jester, B. W.; et. al. J. Am. Chem. Soc. 2010, 132, 11727-11735. Jester, B. W., et. al. J. Med. Chem. 2012, 55, 1526-1537). Biological activity of representative compounds of the disclosure are described in Table 5.

The target in test [4] is T1, BRAF. In words: Radioisotope filter binding assay. It counts as biochemical. The conditions noted are these: read-out: IC50 Activity Levels Against MAPK Pathway Kinases: BRAF. The gist of the method: (§3)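 First, substrate and cofactors are prepared in base buffer (20 mM Hepes pH 7.5, 10 mM MgCl2, 1 mM EGTA). Next, kinase and then compound are added, followed by 20 min at room temperature. Finally, [γ-33P]ATP starts a 2 h reaction, detected by filter binding.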

For test [5], the target named is KDR/VEGFR2 (Homo sapiens (Human), UniProt P35968). In words: Radioisotope filter binding assay. The test is classed as biochemical. The settings on record: read-out: IC50 Activity Levels Against MAPK Pathway Kinases: KDR/VEGFR2. The procedure, abridged: as §3
KDR/VEGFR2, sequence (P35968 20-1356): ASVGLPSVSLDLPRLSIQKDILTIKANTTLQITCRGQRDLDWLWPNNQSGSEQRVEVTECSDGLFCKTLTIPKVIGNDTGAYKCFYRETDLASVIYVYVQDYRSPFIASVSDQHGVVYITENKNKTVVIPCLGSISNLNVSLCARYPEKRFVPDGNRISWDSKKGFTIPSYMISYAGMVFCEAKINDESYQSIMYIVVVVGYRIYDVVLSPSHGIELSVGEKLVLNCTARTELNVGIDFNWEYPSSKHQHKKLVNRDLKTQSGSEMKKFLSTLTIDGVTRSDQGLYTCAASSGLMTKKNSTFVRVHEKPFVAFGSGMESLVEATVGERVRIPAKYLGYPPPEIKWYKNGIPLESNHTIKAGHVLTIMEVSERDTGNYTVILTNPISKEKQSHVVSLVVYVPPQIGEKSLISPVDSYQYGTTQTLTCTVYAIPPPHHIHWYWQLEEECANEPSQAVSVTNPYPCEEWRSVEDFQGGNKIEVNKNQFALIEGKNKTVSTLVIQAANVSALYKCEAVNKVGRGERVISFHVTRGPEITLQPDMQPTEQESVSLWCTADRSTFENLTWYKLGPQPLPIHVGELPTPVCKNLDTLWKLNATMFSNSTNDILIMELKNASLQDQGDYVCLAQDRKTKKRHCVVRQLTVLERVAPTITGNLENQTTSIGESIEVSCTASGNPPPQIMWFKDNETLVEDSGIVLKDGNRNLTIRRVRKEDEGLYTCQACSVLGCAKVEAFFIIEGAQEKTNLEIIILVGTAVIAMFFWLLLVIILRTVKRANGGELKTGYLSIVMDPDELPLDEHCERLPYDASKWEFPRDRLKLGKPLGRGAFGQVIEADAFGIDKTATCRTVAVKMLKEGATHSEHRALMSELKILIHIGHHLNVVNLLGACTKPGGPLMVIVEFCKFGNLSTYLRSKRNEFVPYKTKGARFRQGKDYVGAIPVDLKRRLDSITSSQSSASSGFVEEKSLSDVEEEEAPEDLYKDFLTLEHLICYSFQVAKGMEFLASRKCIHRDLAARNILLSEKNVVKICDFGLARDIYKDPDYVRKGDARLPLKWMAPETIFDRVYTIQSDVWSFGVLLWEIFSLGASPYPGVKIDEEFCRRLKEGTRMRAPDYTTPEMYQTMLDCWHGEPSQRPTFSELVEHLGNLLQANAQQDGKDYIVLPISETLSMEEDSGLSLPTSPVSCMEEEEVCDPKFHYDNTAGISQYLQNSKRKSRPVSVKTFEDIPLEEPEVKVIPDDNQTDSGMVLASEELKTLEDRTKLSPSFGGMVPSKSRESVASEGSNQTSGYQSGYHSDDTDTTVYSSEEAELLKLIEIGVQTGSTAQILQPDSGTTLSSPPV
In test [6] the target is RET (Homo sapiens (Human), UniProt P07949). In words: Radioisotope filter binding assay. The test is classed as biochemical. The conditions noted are these: read-out: IC50 Activity Levels Against RTKs (c-Kit, RET, HER4) and AurA, CHK2 Kinases: RET. The gist of the method: as §3
The target of test [7] is HER4 (Homo sapiens (Human), UniProt Q15303). In words: Radioisotope filter binding assay. The test is classed as biochemical. The conditions noted are these: read-out: IC50 Activity Levels Against RTKs (c-Kit, RET, HER4) and AurA, CHK2 Kinases: HER4. The gist of the method:
as §3

The target of test [8] is c-KIT (Homo sapiens (Human), UniProt P10721). In words: Radioisotope filter binding assay. It counts as biochemical. The settings on record: read-out: IC50 Activity Levels Against RTKs (c-Kit, RET, HER4) and AurA, CHK2 Kinases: c-KIT. The gist of the method:
as §3

The target in test [9] is MEK5 (Homo sapiens (Human), UniProt Q13163). In words: Kinase binding assay CaPBA. The settings on record: read-out: IC50 Activity Levels Against FYN isoforms, YES1 and MEK5: MEK5. The source says:
(§4) 4. Kinase Binding Assay CaPBA:

The target of test [10] is FYN isoform (a) (Homo sapiens (Human), UniProt P06241). Put plainly: Kinase binding assay CaPBA. The settings on record: read-out: IC50 Activity Levels Against FYN isoforms, YES1 and MEK5: FYN isoform (a).
Description: as §4

For test [11], the target named is FYN isoform (b) (Homo sapiens (Human), UniProt P06241). In words: Kinase binding assay CaPBA. The settings on record: read-out: IC50 Activity Levels Against FYN isoforms, YES1 and MEK5: FYN isoform (b).
Description: as §4

T1 sequence (P15056 whole entry): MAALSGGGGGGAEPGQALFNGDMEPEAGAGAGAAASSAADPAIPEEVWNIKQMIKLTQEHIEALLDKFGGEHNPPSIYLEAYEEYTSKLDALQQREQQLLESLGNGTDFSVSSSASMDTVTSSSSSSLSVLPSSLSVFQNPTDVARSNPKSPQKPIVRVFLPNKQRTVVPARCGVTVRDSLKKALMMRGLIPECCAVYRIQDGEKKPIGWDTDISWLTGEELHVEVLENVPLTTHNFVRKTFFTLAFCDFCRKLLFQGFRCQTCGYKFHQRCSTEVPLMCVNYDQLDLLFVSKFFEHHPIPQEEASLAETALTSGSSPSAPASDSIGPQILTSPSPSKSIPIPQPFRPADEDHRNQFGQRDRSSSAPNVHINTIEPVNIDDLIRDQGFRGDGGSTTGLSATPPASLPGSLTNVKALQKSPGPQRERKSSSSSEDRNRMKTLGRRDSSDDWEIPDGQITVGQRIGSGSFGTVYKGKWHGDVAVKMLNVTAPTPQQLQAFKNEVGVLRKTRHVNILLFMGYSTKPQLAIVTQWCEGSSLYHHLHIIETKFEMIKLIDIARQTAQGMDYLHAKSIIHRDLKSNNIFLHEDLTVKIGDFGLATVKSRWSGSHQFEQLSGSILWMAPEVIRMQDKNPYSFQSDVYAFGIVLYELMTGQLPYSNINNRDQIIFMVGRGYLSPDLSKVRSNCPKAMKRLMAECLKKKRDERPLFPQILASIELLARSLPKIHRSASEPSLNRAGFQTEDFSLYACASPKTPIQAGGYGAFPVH
Bruton Tyrosine Kinase (BTK), sequence (Q06187 whole entry): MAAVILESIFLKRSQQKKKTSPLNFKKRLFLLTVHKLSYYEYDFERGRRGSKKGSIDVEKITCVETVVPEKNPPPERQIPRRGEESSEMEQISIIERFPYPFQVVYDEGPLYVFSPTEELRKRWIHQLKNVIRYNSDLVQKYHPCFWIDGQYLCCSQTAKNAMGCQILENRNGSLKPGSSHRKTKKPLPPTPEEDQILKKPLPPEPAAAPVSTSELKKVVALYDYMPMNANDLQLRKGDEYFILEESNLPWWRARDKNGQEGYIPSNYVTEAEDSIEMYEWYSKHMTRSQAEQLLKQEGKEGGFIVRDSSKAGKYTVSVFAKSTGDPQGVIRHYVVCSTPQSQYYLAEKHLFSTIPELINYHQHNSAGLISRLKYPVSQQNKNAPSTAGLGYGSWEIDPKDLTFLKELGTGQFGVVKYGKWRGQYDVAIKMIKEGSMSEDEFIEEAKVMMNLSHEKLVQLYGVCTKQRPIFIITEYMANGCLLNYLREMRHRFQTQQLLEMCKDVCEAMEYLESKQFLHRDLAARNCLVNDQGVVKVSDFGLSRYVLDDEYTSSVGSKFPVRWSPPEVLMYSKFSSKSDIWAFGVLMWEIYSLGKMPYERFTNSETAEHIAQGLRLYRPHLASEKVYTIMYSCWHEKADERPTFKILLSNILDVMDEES
HER4, sequence (Q15303 26-1308): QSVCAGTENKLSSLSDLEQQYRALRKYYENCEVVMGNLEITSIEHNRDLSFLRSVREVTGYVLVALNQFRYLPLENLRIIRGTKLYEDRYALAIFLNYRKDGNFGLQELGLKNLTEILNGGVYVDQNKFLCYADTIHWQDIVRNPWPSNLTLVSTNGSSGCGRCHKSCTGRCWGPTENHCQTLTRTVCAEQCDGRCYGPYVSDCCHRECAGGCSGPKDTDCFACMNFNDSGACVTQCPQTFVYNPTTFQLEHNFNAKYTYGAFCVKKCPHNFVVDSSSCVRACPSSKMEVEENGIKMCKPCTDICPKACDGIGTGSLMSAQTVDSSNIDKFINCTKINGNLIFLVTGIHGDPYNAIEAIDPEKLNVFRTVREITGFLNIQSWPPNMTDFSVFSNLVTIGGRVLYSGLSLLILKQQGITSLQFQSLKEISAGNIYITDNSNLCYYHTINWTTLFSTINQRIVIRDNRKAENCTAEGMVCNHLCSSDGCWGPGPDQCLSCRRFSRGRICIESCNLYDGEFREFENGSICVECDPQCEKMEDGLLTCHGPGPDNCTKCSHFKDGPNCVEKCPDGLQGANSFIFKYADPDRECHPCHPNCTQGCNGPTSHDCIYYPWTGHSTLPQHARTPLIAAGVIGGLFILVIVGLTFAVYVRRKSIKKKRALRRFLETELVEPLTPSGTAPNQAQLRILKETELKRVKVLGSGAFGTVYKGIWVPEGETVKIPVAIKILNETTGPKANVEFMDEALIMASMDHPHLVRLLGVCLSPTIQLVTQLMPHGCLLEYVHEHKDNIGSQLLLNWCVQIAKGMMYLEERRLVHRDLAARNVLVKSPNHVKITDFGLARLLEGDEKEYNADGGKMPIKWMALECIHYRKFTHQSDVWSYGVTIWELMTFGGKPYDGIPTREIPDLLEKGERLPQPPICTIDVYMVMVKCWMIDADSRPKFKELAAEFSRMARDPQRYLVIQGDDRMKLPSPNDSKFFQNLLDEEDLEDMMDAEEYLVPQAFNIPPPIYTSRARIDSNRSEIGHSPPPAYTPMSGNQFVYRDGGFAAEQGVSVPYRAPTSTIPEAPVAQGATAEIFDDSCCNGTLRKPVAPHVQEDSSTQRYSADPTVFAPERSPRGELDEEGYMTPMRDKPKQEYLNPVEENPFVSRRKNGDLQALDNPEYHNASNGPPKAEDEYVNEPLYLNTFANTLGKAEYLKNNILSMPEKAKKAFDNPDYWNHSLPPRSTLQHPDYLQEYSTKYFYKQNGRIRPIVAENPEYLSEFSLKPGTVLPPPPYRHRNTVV
MEK5, sequence (Q13163 whole entry, canonical isoform): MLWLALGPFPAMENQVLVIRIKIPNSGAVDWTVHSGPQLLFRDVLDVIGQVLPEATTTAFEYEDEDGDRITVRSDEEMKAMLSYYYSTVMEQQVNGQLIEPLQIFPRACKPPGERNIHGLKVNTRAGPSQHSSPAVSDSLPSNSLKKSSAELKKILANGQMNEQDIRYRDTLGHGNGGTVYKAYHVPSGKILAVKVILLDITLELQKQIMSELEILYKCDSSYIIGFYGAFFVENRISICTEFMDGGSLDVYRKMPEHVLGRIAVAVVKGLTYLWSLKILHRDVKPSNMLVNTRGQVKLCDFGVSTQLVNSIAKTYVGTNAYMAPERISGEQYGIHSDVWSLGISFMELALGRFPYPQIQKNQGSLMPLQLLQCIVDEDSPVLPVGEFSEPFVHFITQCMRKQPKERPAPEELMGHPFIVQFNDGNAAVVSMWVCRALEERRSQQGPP

Regarding `Nc1ncnc2c1c(-c1ccc(Oc3ccccc3)cc1)nn2C[C@H]1SSC[C@H]1O` [46 B.], the pKd in [1] and in test [2] was 5.00 to 6.00 in each case. For the same compound, the pIC50 in test [3] is 5.00 to 6.00; in test [4], 5.00 to 6.00; in test [5], 5.00 to 6.00; in [6], 5.00 to 6.00; in test [7], 7.00 to 8.30; in test [8], 5.00 to 6.00. In addition, the pIC50 in test [9] is 5.00 to 6.00.

As for `Nc1ncnc2c1c(-c1ccc(Oc3ccccc3)cc1)nn2C[C@@H]1SSC[C@H]1O` [43 A.], the pIC50 in test [3] is 5.00 to 6.00; in [10], 7.00 to 8.30; in test [11], 7.00 to 8.30.

Take `Nc1ncnc2c1c(-c1ccc(Oc3ccccc3)cc1)nn2C[C@@H]1SSC[C@@H]1O` [46 A.]: the pKd in test [1] and in [2] was 5.00 to 6.00 in each case. In addition, the pIC50 was 5.00 to 6.00 in [3]; 5.00 to 6.00 in test [4]; 5.00 to 6.00 in test [5]; 6.00 to 7.00 in test [6]; 5.00 to 6.00 in [7]; 5.00 to 6.00 in test [8].

In the case of `Nc1ncnc2c1c(-c1ccc(Oc3ccccc3)cc1)nn2C[C@H]1SSC[C@@H]1O` [43 B.], the pIC50 was 6.00 to 7.00 in [3], 5.00 to 6.00 in [9], 7.00 to 8.30 in [10] and 7.00 to 8.30 in test [11].

As a reminder, the pKd is −log10 of the Kd, conventionally taken in molar units.
